Experimental data published in paper PMC12559140 (Molecular Neurobiology, 2025).
Several values for one entry are separate records, joined by “and”; a condition that tells them apart may be missing. Equal entries are not always repeated. Entries after “also recorded” stand apart in the source; their conditions may differ. Where two headings read alike, the source gives them in different places.

Key:
[1] = test system: SH-SY5Y cells; settings: cited from earlier work
[2] = test system: (d)-SH-SY5Y cells; assay: Cell viability (MTT), H2O2 alone or co-treatment with H2O2 and drugs; settings: for cell viability compared to H2O2 alone: 10 μM drug + 250 µM H2O2, 24 h
Protocol: (§1) Cells were cultured under standard conditions and used for experiments between passages 5 and 20 to maintain phenotypic consistency and avoid passage-related variability. To ensure the validity of the experimental data and avoid confounding effects, the cell line was routinely tested for Mycoplasma contamination using a PCR-based Mycoplasma detection kit (MycoFluor™ Mycoplasma Detection Kit, Thermo Fisher Scientific). […] Differentiated cells were plated at 1.0 × 10^4 cell/cm^2 confluency and treated with retinoic acid (RA) (R2625-50MG, Sigma Aldrich) at a 10 µM concentration in DMEM/F12 1% FBS for 6 days with RA pulses on every other day. The (d)-SH-SY5Y cells with acquired neuronal properties were used in our experiments involving toxin application and drug treatments.
(§2) (d)-SH-SY5Y cells were cultured in collagen-coated 96-well plates (1.0 × 10^4 cell/well). […] The appropriate dose and time for H2O2 used in our study were determined according to the findings obtained in a preliminary study. Data are expressed as a percentage of cell viability compared to control cultures.

[3] = test system: (d)-SH-SY5Y cells; assay: Neurite analysis by microscopy (NeuronJ/ImageJ); format: cell-based, human; settings: 250 µM H2O2 alone or with 0.1 µM drug
Protocol: SH-SY5Y cells were cultivated on collagen-coated 6-well plates at a density of 1.0 × 10^5 cells/well. Following the differentiation and treatments, microscopic examination of the cell groups was assessed using an inverted microscope (Zeiss Axio) at × 20 objective. Images were taken with multiple independent images for an individual treatment. Images were analyzed for neurite lengths and the number of homogeneous neurites per cell by NeuronJ of ImageJ software; soma size was determined by the Neurphology plugin of ImageJ [46]. Cells with cell extensions longer than twice the cell body diameter were considered neurite-bearing cells. 100 cells were counted from 10 different areas selected to determine neurite density (number of neurites per cell) and neurite length for each sample. The data were expressed as the mean ± SEM from three independent experiments.

[4] = test system: cleaved caspase-3; assay: Cleaved caspase-3 ELISA in H2O2-treated cells; format: cell-based, human; settings: 250 μM H2O2 alone (vs untreated) or with CNI (vs H2O2 alone), 24 h, n = 2
Protocol: The quantification of cleaved caspase-3 levels in cell lysates was performed using a commercially available human cleaved caspase-3 ELISA kit (E6970HU, BT Lab), according to the manufacturer’s instructions. SH-SY5Y cells were seeded in collagen-coated 6-well plates (1.0 × 10^5 cell/well) and differentiated. Cells were exposed to 250 μM H2O2 in the presence or absence of CNI compounds for 24 h. Following treatment, cells were collected, diluted with PBS, and destroyed by multiple freeze–thaw cycles, both treated and untreated. The levels of cleaved caspase-3 in the cell lysates were measured in the order recommended by the manufacturer. The BCA assay (44,132, Expedeon) was used to compare the total protein contents in treated and untreated cells.

[5] = test system: AChE mRNA; assay: AChE mRNA expression by qRT-PCR; format: cell-based; settings: 250 µM H2O2 alone (vs control) or with 0.1 µM drug (vs H2O2 alone), 24 h, 2^−ΔΔCt, GAPDH
Protocol: SH-SY5Y cells were cultivated on collagen-coated 6-well plates at a density of 1.0 × 10^5 cells/well. […]. The purity and concentration of the isolated RNA were assessed by measuring absorbance at 260 nm and 280 nm. cDNA was synthesized from 1 μg of total RNA using the OneScript Plus cDNA Synthesis Kit (G236, Abmgood). Subsequent to cDNA synthesis, quantitative real-time PCR (qRT-PCR) was conducted on a Roche Light Cycler 96 real-time PCR System utilizing the SYBR Green PCR Kit BlasTaq 2X qPCR MasterMix (G891, Abmgood) according to established protocols. All amplification reactions for each sample were performed in triplicate, and the experiments were repeated at least three times. The relative mRNA expression levels were quantified using the 2^−ΔΔCt method, normalizing the data against glyceraldehyde-3-phosphate dehydrogenase (GAPDH). Primer sequences are listed as follows: GAPDH forward, 5′-[…]-3′ and reverse, 5′-[…]-3′; AChE forward, 5′-[…]-3′ and reverse, 5′-[…]-3′.

[6] = molecular target: T1, AChE (Homo sapiens, UniProt P22303); assay: Cellular AChE activity (ELISA); format: cell-based; parameters: To extract the total protein from the treated (d)-SH-SY5Y cells; endogenous in cells; host or cells: differentiated SH-SY5Y (human neuroblastoma); settings: (d)-SH-SY5Y
T1 sequence (P22303 32-614): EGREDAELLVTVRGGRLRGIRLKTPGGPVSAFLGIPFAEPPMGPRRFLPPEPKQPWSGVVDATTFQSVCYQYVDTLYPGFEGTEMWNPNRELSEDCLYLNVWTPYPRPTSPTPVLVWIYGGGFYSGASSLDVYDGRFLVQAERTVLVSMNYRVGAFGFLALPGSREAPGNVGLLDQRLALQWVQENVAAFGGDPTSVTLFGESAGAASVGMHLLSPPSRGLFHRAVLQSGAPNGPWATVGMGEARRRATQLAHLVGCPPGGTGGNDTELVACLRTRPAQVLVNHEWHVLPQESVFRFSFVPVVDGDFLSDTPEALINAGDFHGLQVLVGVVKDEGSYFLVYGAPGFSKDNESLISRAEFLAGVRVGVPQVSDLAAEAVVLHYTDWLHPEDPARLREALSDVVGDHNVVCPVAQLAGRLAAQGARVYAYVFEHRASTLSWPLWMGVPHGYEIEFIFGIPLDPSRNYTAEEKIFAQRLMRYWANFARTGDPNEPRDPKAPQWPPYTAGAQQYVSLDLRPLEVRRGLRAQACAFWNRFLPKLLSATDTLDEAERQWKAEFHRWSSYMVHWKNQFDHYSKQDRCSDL
Protocol: SH-SY5Y cells were cultivated on collagen-coated 6-well plates at a density of 1.0 × 10^5 cells/well. […] To extract the total protein from the treated (d)-SH-SY5Y cells, the cultures were rinsed twice with cold phosphate-buffered saline (PBS), followed by scraping to collect the cells. The resulting cell suspension was transferred to 1.5 mL tubes, which were then centrifuged at 10,000 × g for 5 min at 4 °C. The supernatant was carefully discarded, and the cell pellets were lysed using RIPA buffer. The total protein concentration present in the extracts was quantified using the Bicinchoninic Acid (BCA) assay. Any remaining protein was stored at − 80 °C until the time of enzymatic analysis. Relative AChE activity was determined using an equal amount of total protein and employing an Enzyme-Linked Immunosorbent Assay (ELISA) (Human AchE (Acetylcholinesterase) Kit, ELK4614-96 T), following the manufacturer’s guidelines.

[7] = molecular target: T1, AChE; assay: biochemical
Protocol: The inhibition of AChE activity in vitro was evaluated following the methodology outlined by Ellman et al., with some modifications implemented. […] The enzyme activity was expressed as a percentage relative to a control assay conducted without any inhibitor. The percentage inhibition of AChE activity was determined by comparing the absorbance values with those of the negative control, using the following equation:
AChE inhibition % = ((A0 − A1)/A0) × 100.
In this equation, A0 represents the absorbance of the control lacking the sample, while A1 indicates the absorbance of the sample tested.
Dose–response curves were generated and analyzed using GraphPad Prism version 8.0, applying a sigmoidal dose–response model with variable slope (four-parameter logistic regression). IC50 values were derived from the fitted curves and are expressed in micromolar (µM).

[8] = test system: (d)-SH-SY5Y cells; assay: Cell viability (MTT), drugs alone; settings: 0.01–10 μM, (d)-SH-SY5Y, no oxidative stress
Protocol: as §1, §2

[9] = Cell viability (MTT), drugs alone; settings: human
Protocol: as §1, §2

[10] = 0.1 μM drug + 250 µM H2O2, 24 h, vs H2O2 alone

COc1ccc2c3c1O[C@H]1C[C@@H](O)C=C[C@@]31CCN(C)C2 [Gal, Galantamine]
reduction in viability ([1]; 1.25 mg/mL): 17% | CC50 [1]: ~5000 µM | concentrations at which cell viability remained comparable to controls [1]: up to 10 μM | concentrations with significant reductions in viability [1]: ≥ 100 µM | concentrations with no cytotoxic effect ([1]; differentiated SH-SY5Y cells): up to 50 μM

OO [H2O2]
average cell viability ([2]; 250 µM H2O2 alone, 24 h, compared to the control group): 57.8 ± 5% | Neurite index (neurite/cell) [3]: 0.8 ± 0.2 neurite/cell and 0.8 ± 0.2*^p=0.001 neurite/cell | Neurite length [3]: 39.6 ± 6.3 μm and 39.6 ± 6.3*^p=0.001 μm | caspase-3 levels [4]: significant increase in caspase-3 levels | AChE mRNA expression [5]: significant upregulation of AChE mRNA expression | increase of AChE activity compared to the control ([6]; 250 μM H2O2 alone, 24 h): 1.45 fold

CC[C@@H]1/C=C(\C)C[C@H](C)C[C@H](OC)[C@H]2O[C@@](O)(C(=O)C(=O)N3CCCC[C@H]3C(=O)O[C@H](/C(C)=C/[C@@H]3CC[C@H](Cl)[C@H](OC)C3)[C@H](C)[C@@H](O)CC1=O)[C@H](C)C[C@@H]2OC [Pim, Pimecrolimus]
protective effect on cell viability against H2O2 ([2]; 1 µM drug + 250 µM H2O2, 24 h): best protected cell viability | Neurite index (neurite/cell) [3]: 1.1 ± 0.3 neurite/cell | Neurite length [3]: 39.8 ± 5.7 μm | caspase-3 levels [4]: significantly attenuated this increase | IC50 [7]: 2.15 ± 0.1 µM | AChE mRNA expression [5]: significantly reduced AChE mRNA levels | cytotoxicity of drug alone [8]: did not show detectable cytotoxicity

C=CC[C@@H]1/C=C(\C)C[C@H](C)C[C@H](OC)[C@H]2O[C@@](O)(C(=O)C(=O)N3CCCC[C@H]3C(=O)O[C@H](/C(C)=C/[C@@H]3CC[C@@H](O)[C@H](OC)C3)[C@H](C)[C@@H](O)CC1=O)[C@H](C)C[C@@H]2OC [Tac, Tacrolimus]
protective effect on cell viability against H2O2 [2, 10]: not statistically significant | cell viability compared to H2O2 alone [2]: significantly reduced cell viability | Neurite index (neurite/cell) [3]: 1.2 ± 0.1 neurite/cell | Neurite length [3]: 34.5 ± 3.5 μm | caspase-3 levels [4]: did not significantly modulate caspase-3 expression | IC50 [7]: 4.24 ± 0.1 µM | AChE mRNA expression [5]: significantly reduced AChE mRNA levels | viability at 24 h, 1 µM [9]: 55.2 ± 2.5% | viability at 24 h, 10 µM [9]: 50.1 ± 2%

C=C/C=C/C[C@@H](C)[C@@H](O)[C@H]1C(=O)N[C@@H](CC)C(=O)N(C)CC(=O)N(C)[C@@H](CC(C)C)C(=O)N[C@@H](C(C)C)C(=O)N(C)[C@@H](CC(C)C)C(=O)N[C@@H](C)C(=O)N[C@H](C)C(=O)N(C)[C@@H](CC(C)C)C(=O)N(C)[C@@H](CC(C)C)C(=O)N(C)[C@@H](C(C)C)C(=O)N1C [Voc, Voclosporin]
protective effect on cell viability against H2O2 [2, 10]: significantly increasing cell viability compared to the H2O2-only group | cell viability compared to H2O2 alone [2]: further decrease in cell viability; also recorded: significantly reduced cell viability | Neurite index (neurite/cell) [3]: 1.3 ± 0.3^#p=0.02 neurite/cell | Neurite length [3]: 45.4 ± 5.5^#p=0.04 μm | caspase-3 levels [4]: significantly attenuated this increase | AChE inhibitory effect compared to galantamine ([7]; 0.01 µM): higher AChE inhibitory effect compared to galantamine | IC50 ([7]; read-out: IC50 against AChE, recombinant human AChE, Ellman method, 0.01–10 µM, four-parameter fit): 0.004 ± 0.0002 µM | AChE mRNA expression [5]: significantly reduced AChE mRNA levels | AChE activity ([6]; 0.1 μM drug + 250 μM H2O2, 24 h): 96.3 ± 2.3% | viability at 24 h, 1 µM [9]: 75.5 ± 4.8% | viability at 24 h, 10 µM [9]: 62.1 ± 3.6%
